Measured values: patent publication US20250326792A1, “A FORMULATION FOR TREATMENT OF PIGMENTARY DISORDERS” (priority 2022, published 2025)
PHPP = 3-Phenylpyrazolo[3,4-d]pyrimidine (N-terminal cap)

Columns and labels:
B16F10 cells [1] = assay: Melanin content assay in B16F10 cells; type: cell-based; conditions: for % increase in melanin content compared to control / Fold change in melanin content: B16F10 CELLS
Protocol: (§1) Culture and maintenance of cell lines: B16F10 cells were cultured in RPMI containing 10% fetal bovine serum, 100 units per millilitre (U/mL) penicillin, 0.1 mg/mL streptomycin, and 0.25 microgram per millilitre (μg/mL) amphotericin B at 37 degrees Celsius in a humidified 95% air/5% CO2 incubator. Drug treatment was done 24 hours after seeding. Cells were harvested 48 hours later and melanin content and tyrosinase activity determined in triplicate. NHEM cells were cultured in DMEM containing 10% fetal bovine serum, 100 units per milliliter (U/mL) penicillin, 0.1 mg/mL streptomycin, and 0.25 microgram per millilitre (μg/mL) amphotericin B at 37 degrees Celsius in a humidified 95% air/5% CO2 incubator. Drug treatment was done 24 hours after seeding. Cells were harvested 48 hours later and melanin content and tyrosinase activity determined in triplicate.
(§2) IS103 was dissolved in water for injection or DMSO to prepare stock solution of about 50 mg/ml. The stock solution was used for preparation of subsequent dilutions in solvent to achieve working dilutions for treatment ranging 0.1 μg/ml to 1000 μg/ml.
Cells were seeded in a 6-well plate (2×10^4 cells/well) and incubated overnight to allow the cells to adhere. After treating with various test samples for 4 or 5 days, cells were washed with phosphate-buffered saline (PBS), trypsinized, counted, and then lysed in 1 N NaOH at 100° C. for about 1 hour. The melanin content in each sample was calculated by comparison of absorbance at 400 nm of unknown samples with a standard curve obtained using synthetic melanin. […] B16F10 and NHEM cells were treated with different concentrations of IS103 ranging from 0.1 to 1000 μg/ml and analysed melanin contents in cells. […] To assess the toxicity of the IS103 peptide, cell viability was analyzed by MTT assay.

Tyrosinase = Tyrosinase activity assay (L-DOPA) in B16F10 cells; type: cell-based; conditions: for % increase in tyrosinase activity compared to control / Change in tyrosinase activity: TYROSINASE ACTIVITY table
Protocol: as §1, §2
Tyrosinase activity was determined using L-DOPA as a substrate. Briefly, B16F10 and NHEM cells were seeded in a 6-well plate (2×10^4 cells/well) and incubated for overnight. The cells were then treated with or without the test compounds for 46 hours and were washed twice with ice cold PBS and extracted by sonication in 100 μl of 0.1M Tris-HCl buffer (pH 7.2) containing 1% Nonidet P-40, 0.01% SDS, 100 μM phenyl methyl sulfonyl fluoride, and 1 μg/ml aprotinin and then centrifuged at 10,000 g for about 10 minutes at 4° C. The supernatants collected were used for enzyme assay and its protein content was estimated by method of Bradford using BSA as standard. Samples of cell extract supernatant were incubated in duplicate for 1 hour at 37° C. in 1 ml of 0.1M sodium phosphate buffer (pH 7.4) containing 0.1% L-DOPA. The absorbance was then monitored at 450 nm and compared with purified mushroom tyrosinase (Sigma). The standard curve was prepared limiting linearity within the range of experimental value.

NHEM cells = assay: Cell viability (XTT assay) in NHEM cells; type: cell-based, Human; conditions: 1000 μg/ml for about 48 hours
Protocol: (§3) Culture and maintenance of cell lines: B16F10 cells were cultured in RPMI containing 10% fetal bovine serum, 100 units per millilitre (U/mL) penicillin, 0.1 mg/mL streptomycin, and 0.25 microgram per millilitre (μg/mL) amphotericin B at 37 degrees Celsius in a humidified 95% air/5% CO2 incubator. Drug treatment was done 24 hours after seeding. Cells were harvested 48 hours later and melanin content and tyrosinase activity determined in triplicate. […] […]
(§4) B16F10 and NHEM cells were sub-cultured into 96-well culture plates at a density of 1×10^4 cells/well in 100 μL medium and after about 24 hours of incubation, the medium was discarded and replaced with 100 μL of a suitable medium (RPMI for B16F10 and DMEM for NHEM with 1% FBS) for starvation and then treated in the presence or absence of various concentrations of test compound and positive controls (IBMX and α-MSH). […] At the end of the incubation, about 50 μL of XTT test solution prepared by mixing about 5 mL of XTT-labeling reagent and about 100 μL of electron coupling reagent is added to each well and after about 4 hours of incubation at 37° C. and a about 5% CO2 incubator, the absorbance was measured on an ELISA reader at a test wavelength of 490 nm.

B16F10 cells [2] = assay: Cell viability (XTT assay) in B16F10 cells; type: cell-based; conditions: 1000 μg/ml for about 48 hours
Protocol: as §3, §4

[3] = B16F10 cells, different concentrations, about 48 hours

Substance: PHPP-Tyr-Arg-Ser-Arg-Lys-Tyr-Ser-Ser-Trp-Tyr-NH2 ({PHPP}-YRSRKYSSWY-NH2) [IS103]
- % increase in melanin content compared to control (B16F10 cells [1]; 0.1 μg/mL): 0%
- Fold change in melanin content (B16F10 cells [1]; 0.1 μg/mL): 1.0 ± 0.20
- % increase in melanin content compared to control (B16F10 cells [1]; 1 μg/mL): 0%
- Fold change in melanin content (B16F10 cells [1]; 1 μg/mL): 1.0 ± 0.30
- % increase in melanin content compared to control (B16F10 cells [1]; 10 μg/mL): 20%
- Fold change in melanin content (B16F10 cells [1]; 10 μg/mL): 1.2 ± 0.10
- % increase in melanin content compared to control (B16F10 cells [1]; 50 μg/mL): 60%
- Fold change in melanin content (B16F10 cells [1]; 50 μg/mL): 1.6 ± 0.20
- % increase in melanin content compared to control (B16F10 cells [1]; 100 μg/mL): 125%
- Fold change in melanin content (B16F10 cells [1]; 100 μg/mL): 2.3 ± 0.30
- % increase in melanin content compared to control (B16F10 cells [1]; 250 μg/mL): 180%
- Fold change in melanin content (B16F10 cells [1]; 250 μg/mL): 2.8 ± 0.20
- % increase in melanin content compared to control (B16F10 cells [1]; 500 μg/mL): 190%
- Fold change in melanin content (B16F10 cells [1]; 500 μg/mL): 2.9 ± 0.10
- % increase in melanin content compared to control (B16F10 cells [1]; 1000 μg/mL): 176%
- Fold change in melanin content (B16F10 cells [1]; 1000 μg/mL): 2.8 ± 0.30
- concentration sufficient to significantly enhance melanin synthesis (B16F10 cells [1]; B16F10 and NHEM cells, not distinguished): 10 µg/mL
- effect on melanin synthesis (FIG. 4) (B16F10 cells [1]; [3]): enhanced melanin synthesis in a dose-dependent manner
- increase in Tyrosinase activity when compared to control (Tyrosinase; B16F10 CELLS, 250 μg/mL): 55.33%
- effect on tyrosinase activity (FIG. 6) (Tyrosinase; [3]): increased tyrosinase activity
- % increase in tyrosinase activity compared to control (Tyrosinase; B16F10 CELLS, 0.1 μg/mL): 0%
- Change in tyrosinase activity (Tyrosinase; B16F10 CELLS, 0.1 μg/mL): 15.0 ± 1.60
- % increase in tyrosinase activity compared to control (Tyrosinase; B16F10 CELLS, 1 μg/mL): 3%
- Change in tyrosinase activity (Tyrosinase; B16F10 CELLS, 1 μg/mL): 18.0 ± 2.20
- % increase in tyrosinase activity compared to control (Tyrosinase; B16F10 CELLS, 10 μg/mL): 10.33%
- Change in tyrosinase activity (Tyrosinase; B16F10 CELLS, 10 μg/mL): 25.3 ± 1.20
- % increase in tyrosinase activity compared to control (Tyrosinase; B16F10 CELLS, 50 μg/mL): 24%
- Change in tyrosinase activity (Tyrosinase; B16F10 CELLS, 50 μg/mL): 39.0 ± 2.20
- % increase in tyrosinase activity compared to control (Tyrosinase; B16F10 CELLS, 100 μg/mL): 42.33%
- Change in tyrosinase activity (Tyrosinase; B16F10 CELLS, 100 μg/mL): 57.3 ± 4.20
- % increase in tyrosinase activity compared to control (Tyrosinase; B16F10 CELLS, 250 μg/mL): 55.33%
- Change in tyrosinase activity (Tyrosinase; B16F10 CELLS, 250 μg/mL): 70.3 ± 1.70
- % increase in tyrosinase activity compared to control (Tyrosinase; B16F10 CELLS, 500 μg/mL): 62%
- Change in tyrosinase activity (Tyrosinase; B16F10 CELLS, 500 μg/mL): 77.0 ± 3.00
- % increase in tyrosinase activity compared to control (Tyrosinase; B16F10 CELLS, 1000 μg/mL): 60.33%
- Change in tyrosinase activity (Tyrosinase; B16F10 CELLS, 1000 μg/mL): 75.3 ± 2.50
- effect on cell viability (NHEM cells): did not exert any significant effect on cell viability
- effect on cell viability (B16F10 cells [2]): did not exert any significant effect on cell viability
